Patent publication US4039574A, “13-Hydroxy-15-deoxy-prostaglandins” (American Cyanamid Company, priority 1975, dated 1977)

Tested on: basal gastric acid secretion
Assay: Inhibition of Gastric Acid Secretion in the Acute Gastric Fistula Rat (basal gastric acid secretion)
Format: in vivo, Female Sprague-Dawley rats
Settings: 10 mg./kg., vs concurrent vehicle control

CCCCCCCC(O)C1C(O)CC(=O)C1CC=CCCCC(=O)O (stereo not drawn) [2β-(6-carboxyhex-2-cis-enyl)-3β-(1-hydroxyoctyl)-4-hydroxycy] [2β-(6-carboxyhex-2-cis-enyl)-3β-(1-hydroxyoctyl)-4-hydroxycyclopentanone]
% inhibition of total acid output after 60 minutes (intraduodenal route): 100%
% inhibition of total acid output after 120 minutes (intraduodenal route): 94%
% inhibition of total acid output after 60 minutes (oral route of administration): 1%
% inhibition of total acid output after 120 minutes (oral route of administration): 56%

CCCCCCCC(O)[C@@H]1CCC(=O)[C@H]1CCCCCCC(=O)O (relative stereo) [trans-2-(6-carboxyhexyl)-3-(1-hydroxyoctyl)cyclopentanone]
% inhibition of total acid output after 60 minutes (intraduodenal route): 29%
% inhibition of total acid output after 120 minutes (intraduodenal route): 78%

CCCCCCCC(O)C1C(O)CC(=O)C1CC=CCCCC(=O)O (stereo not drawn) [2α-(6-carboxyhex-2-cis-enyl)-3β-(1-hydroxyoctyl)-4-hydroxycy] [2α-(6-carboxyhex-2-cis-enyl)-3β-(1-hydroxyoctyl)-4-hydroxycyclopentanone]
% inhibition of total acid output after 60 minutes (intraduodenal route): 81%
% inhibition of total acid output after 120 minutes (intraduodenal route): 20%
